pIC50: −log10 of the molar value.
Key:
JMJD2E (KDM4E) = biological target: T1, JMJD2E (KDM4E) (Homo sapiens, UniProt B2RXH2); test: qHTS fluorescence FDH-coupled JMJD2E demethylase assay; format: biochemical; settings: Table S1; unit not in table, from Figure 2; read-out: qHTS Data: jmjd2e IC50
T1 construct: The catalytic domain of human JMJD2E (residues 1–337); His6 (N); made in house; host or cells: E. coli
T1 sequence (B2RXH2 1-337): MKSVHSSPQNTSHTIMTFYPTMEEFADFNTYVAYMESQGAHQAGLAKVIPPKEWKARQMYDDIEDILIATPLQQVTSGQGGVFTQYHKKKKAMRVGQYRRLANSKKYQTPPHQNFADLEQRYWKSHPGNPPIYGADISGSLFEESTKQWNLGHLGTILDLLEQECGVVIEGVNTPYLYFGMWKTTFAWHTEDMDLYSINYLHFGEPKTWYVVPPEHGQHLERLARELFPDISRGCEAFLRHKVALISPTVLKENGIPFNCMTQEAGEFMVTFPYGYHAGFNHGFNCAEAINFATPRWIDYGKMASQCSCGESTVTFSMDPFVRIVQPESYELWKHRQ
Excerpt: The oxidation of formaldehyde is coupled to the reduction of NAD^+ to NADH, which is monitored by fluorescence spectroscopy. […] To this end, initial screening hits were filtered by a combination of cheminformatics (to exclude low-confidence inhibitors and autofluorescent false positives), counterscreening against the coupled-assay component formaldehyde dehydrogenase (FDH), and orthogonal direct detection of inhibition of demethylation by mass spectrometry ( Figure 1 ).
Reactions were initiated with 1 µL addition of peptide substrate solution containing final concentrations of 10 µM FAS, 50 µM 2OG, 0.25 U/mL FDH, 0.25 mM NAD^+, and 50 µM peptide substrate (ARK(me3)STGGK). A ViewLux imager (PerkinElmer, Waltham, MA) was used to measure NADH fluorescence (λex 340 nm, λem 450 nm) immediately after substrate addition and following 30 min incubation at room temperature. To record any systematic drifts in assay behavior (signal window and noise), assay plates containing no library compounds but only DMSO as a vehicle control were tested periodically (every ∼60 plates) throughout the screen.
Data were normalized to the basal response (0% activity) in the absence of enzyme and the maximal response (100% activity) in the absence of compound. Using the Hill equation, dose-response curves and IC50 values were automatically generated for each compound tested with software developed internally (www.ncgc.nih.gov/pub/openhts/curvefit/). […] The initial well fluorescence (first kinetic read) associated with each sample was stored in a database and used in the cheminformatics analysis to identify autofluorescent compounds interfering with the assay signal.

[1] = biological target: T2, formaldehyde dehydrogenase (FDH) (Pseudomonas putida, UniProt P46154); test: FDH coupling enzyme counterscreen; format: biochemical; settings: Table S1, FDH counterscreen; for pIC50: unit not in table, from Figure 2, read-out: qHTS Data: jmjd2e fdh IC50
T2 construct: purchased Sigma-Aldrich
Excerpt: Dimethylsulfoxide certified ACS grade (DMSO) was from Fisher, Inc. HEPES buffer was obtained from Gibco. […] Black solid-bottom 1,536-well assay plates were from Greiner Bio-One (Monroe, NC).

JMJD2E [2] = biological target: T3, JMJD2E (Homo sapiens, UniProt B2RXH2); test: MALDI-TOF MS demethylation assay, JMJD2E; settings: Table S1; for MALDI-TOF Data: Span: span of the fitted curve; for MALDI-TOF Data: Span / pIC50: 2 µM JMJD2E; for pIC50: read-out: MALDI-TOF Data: IC50, unit not in table, ~ values are poorly fitted
T3 sequence (B2RXH2 1-337): T1 sequence (B2RXH2 1-337)
Description: Initially, JMJD2, Fe(II), ascorbate and inhibitors were pre-incubated for 15 min prior to the addition of peptide and 2OG. The reaction was incubated for 30 min before 1∶1 quenching with methanol followed by addition of four volumes of 20 mM triammonium citrate. […] The diluted assay mixture (1 µL) from JMJD2 and PHD2 assays were mixed with 1 µL of α-cyano-4-hydroxycinnamic acid and 1 µL of FIH assay mixture was mixed with 1 µL of sinapinic acid matrix, and assessed by matrix-assisted laser desorption/ionization-time of flight (MALDI-TOF).

JMJD2E [3] = biological target: T3, JMJD2E; test: JMJD2E FDH-coupled assay under low and high iron conditions (iron chelation profile); format: biochemical; design: The catalytic domain of human JMJD2E (residues 1–337); His6 (N); made in house; host or cells: E. coli; settings: Table S1; for pIC50: unit not in table, from Figure 2
Description: The prioritized compounds were also evaluated in the screening assay using two different ferrous ion concentrations (termed high iron and low iron, respectively), in order to assess their propensity for iron chelation.
The ratio of IC50 values under high iron to low iron was calculated for each compound.

JMJD2A = biological target: T4, JMJD2A (Homo sapiens, UniProt O75164); test: Cellular demethylase assay: H3K9me3 immunofluorescence in HeLa cells overexpressing Flag-JMJD2A; settings: 24 hr
T4 sequence (O75164 1-1064): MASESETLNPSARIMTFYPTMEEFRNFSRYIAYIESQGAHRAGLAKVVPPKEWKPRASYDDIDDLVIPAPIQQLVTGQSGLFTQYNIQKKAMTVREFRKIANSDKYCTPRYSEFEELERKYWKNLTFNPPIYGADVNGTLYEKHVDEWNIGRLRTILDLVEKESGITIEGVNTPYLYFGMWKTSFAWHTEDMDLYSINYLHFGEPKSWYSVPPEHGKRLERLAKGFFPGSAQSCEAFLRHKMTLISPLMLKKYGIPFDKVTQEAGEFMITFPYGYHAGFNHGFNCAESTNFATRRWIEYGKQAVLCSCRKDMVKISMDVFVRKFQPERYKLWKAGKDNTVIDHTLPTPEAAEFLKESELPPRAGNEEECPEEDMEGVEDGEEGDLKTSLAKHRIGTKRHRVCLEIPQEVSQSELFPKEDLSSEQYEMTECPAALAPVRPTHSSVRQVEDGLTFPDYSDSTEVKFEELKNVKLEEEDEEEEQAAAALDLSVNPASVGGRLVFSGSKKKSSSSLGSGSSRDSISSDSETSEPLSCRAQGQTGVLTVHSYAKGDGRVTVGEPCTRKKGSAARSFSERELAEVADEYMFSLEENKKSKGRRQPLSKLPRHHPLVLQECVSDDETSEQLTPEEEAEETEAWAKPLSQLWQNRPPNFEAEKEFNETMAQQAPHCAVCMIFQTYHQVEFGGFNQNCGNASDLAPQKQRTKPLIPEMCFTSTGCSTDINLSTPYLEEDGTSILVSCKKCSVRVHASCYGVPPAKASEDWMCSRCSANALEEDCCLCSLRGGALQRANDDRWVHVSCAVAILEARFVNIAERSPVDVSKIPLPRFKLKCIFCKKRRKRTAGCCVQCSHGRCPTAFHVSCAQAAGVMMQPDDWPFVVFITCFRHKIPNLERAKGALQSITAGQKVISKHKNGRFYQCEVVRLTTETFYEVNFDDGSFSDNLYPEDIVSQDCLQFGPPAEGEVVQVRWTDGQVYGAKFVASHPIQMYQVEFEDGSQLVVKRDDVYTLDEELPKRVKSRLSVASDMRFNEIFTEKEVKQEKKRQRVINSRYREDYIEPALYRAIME
Excerpt: Therefore, in order to automate this process a series of images were collected for each treatment on a standard epifluorescence microscope ( Figure 5A ) and then submitted to CellProfiler Software for analysis [29]. CellProfiler was configured to analyze the images for DAPI signal, a DNA stain, enabling the program to identify the location of individual cells and create a boundary that delineates the volume of the nuclear compartment. As not all cells in a given field are transfected, the Flag-JMJD2A-expressing cells were identified by quantifying the immunofluoresence signal resulting from the Flag antibody staining and using the mock transfected cells as a baseline for the signal intensity of non-transfected cells. Once the transfected cells were identified, the nuclear H3K9me3 immunofluorescence signal for each cell was quantified by CellProfiler. The levels of H3K9me3 staining intensity were analyzed in the DMSO vehicle treated or inhibitor treated samples. As a control and a means of determining maximal possible inhibition of demethylase activity, cells expressing the JMJD2A H188A catalytically deficient mutant were also quantified in each experiment. […] For each treatment a minimum of 400 transfected cells was analyzed and the final values of inhibition were derived from inhibition experiments carried out on three separate days (biological triplicates). […]

[4] = Cytotoxicity, resazurin/resorufin (CellTiter-Blue); format: cell-based; settings: human, HeLa cells
Description: Cytotoxicity testing of the 5-carboxy-8HQ on HeLa cells was conducted with the resazurin/resorufin system for cellular metabolism.
Cytotoxicity testing was done with CellTiter-Blue (Promega) according to the manufacturer's directions.

FIH = FIH (Homo sapiens, UniProt Q9NWT6); test: MALDI-TOF MS peptide hydroxylation assay, FIH
Description: JMJD2 assays were carried out as reported [13]. […] Initially, JMJD2, Fe(II), ascorbate and inhibitors were pre-incubated for 15 min prior to the addition of peptide and 2OG. The reaction was incubated for 30 min before 1∶1 quenching with methanol followed by addition of four volumes of 20 mM triammonium citrate. PHD2 and FIH assays were carried out as described [41], [42] with minor modifications. PHD2 assay consisted of PHD2 (1 µM), FAS (10 µM), SA (100 µM), 2OG (60 µM) and HIF-1α^556–574CODD peptide (50 µM), in 50 mM HEPES (pH 7.5) with varying concentrations of inhibitors (final DMSO concentration was 5%). Initially, PHD2, Fe(II), ascorbate and inhibitors were pre-incubated for 15 min prior to the addition of peptide and 2OG. The reaction was incubated for 30 min before 1∶1 quenching with 1% TFA followed by addition of three volumes of 20 mM triammonium citrate. FIH assay consisted of FIH (1 µM), FAS (10 µM), SA (100 µM), 2OG (100 µM) and HIF-1α^786–826CAD peptide (100 µM), in 50 mM HEPES (pH 7.5) with varying concentrations of inhibitors (final DMSO concentration was 5%). […] The diluted assay mixture (1 µL) from JMJD2 and PHD2 assays were mixed with 1 µL of α-cyano-4-hydroxycinnamic acid and 1 µL of FIH assay mixture was mixed with 1 µL of sinapinic acid matrix, and assessed by matrix-assisted laser desorption/ionization-time of flight (MALDI-TOF).

[5] = high iron, head says 20 µM FAS, read-out: qHTS Data: jmjd2e fas20um IC50
[6] = low iron 2.5 µM FAS, read-out: qHTS Data: jmjd2e fas2.5um IC50

T2 sequence (P46154 whole entry): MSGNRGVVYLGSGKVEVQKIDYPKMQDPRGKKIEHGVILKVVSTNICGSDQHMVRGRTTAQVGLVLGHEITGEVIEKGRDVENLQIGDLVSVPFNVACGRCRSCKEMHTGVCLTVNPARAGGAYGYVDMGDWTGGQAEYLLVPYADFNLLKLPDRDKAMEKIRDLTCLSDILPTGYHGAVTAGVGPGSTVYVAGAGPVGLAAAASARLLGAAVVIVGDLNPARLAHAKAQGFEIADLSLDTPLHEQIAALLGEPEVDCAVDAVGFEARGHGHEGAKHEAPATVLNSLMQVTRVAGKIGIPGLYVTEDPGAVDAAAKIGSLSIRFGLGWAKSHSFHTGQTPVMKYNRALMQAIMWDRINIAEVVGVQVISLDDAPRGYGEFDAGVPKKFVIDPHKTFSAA
FIH, sequence (Q9NWT6 whole entry): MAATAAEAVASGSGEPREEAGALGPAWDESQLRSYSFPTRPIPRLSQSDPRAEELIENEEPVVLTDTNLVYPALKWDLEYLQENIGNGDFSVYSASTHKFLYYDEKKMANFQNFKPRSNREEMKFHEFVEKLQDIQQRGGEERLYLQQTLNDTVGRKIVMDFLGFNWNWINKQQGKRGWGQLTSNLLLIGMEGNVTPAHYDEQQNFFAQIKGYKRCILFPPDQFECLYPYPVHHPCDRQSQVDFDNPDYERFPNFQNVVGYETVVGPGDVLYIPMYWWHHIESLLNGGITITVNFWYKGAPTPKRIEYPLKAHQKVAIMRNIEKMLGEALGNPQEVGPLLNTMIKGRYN

Structure (SMILES) | pIC50 (JMJD2E (KDM4E)) | qHTS Data: jmjd2e fdh CurveClass [1] | MALDI-TOF Data: Span (JMJD2E [2]) | pIC50 (JMJD2E [2]) | pIC50 (JMJD2E [3]; [5]) | pIC50 (JMJD2E [3]; [6]) | JMJD2A demethylase activity remaining (JMJD2A; 1mM treatment) | pIC50 [1] | MALDI-TOF Data: Comments (JMJD2E [2]) | qHTS Data: jmjd2e fas20um CurveClass (JMJD2E [3]; high iron) | qHTS Data: jmjd2e fas2.5um Curve comment (JMJD2E [3]; low iron 2.5 µM FAS) | JMJD2A demethylase activity remaining (JMJD2A; 2.5mM treatment) | pIC50 [4] | pIC50 (FIH)
Br.Oc1ccc(C2CNCCc3c2cc(O)c(O)c3Cl)cc1 (centres unmarked) [compound 50106351] | 4.60 | Inactive | 93.35 | 5.08 | 5.10 | 5.20 |  |  |  |  |  |  |  | 
COC(=O)c1ccnc(C(=O)OC)c1 [dimethyl-2,4-PDCA] |  |  |  |  |  |  | approximately 35% |  |  |  |  |  |  | 
C=CCn1c(SCC(=O)c2ccc(O)c(O)c2)nnc1-c1cccnc1 [compound 26671532] | 5.45 | Poor quality curve | 91.73 | 4.93 | 5.90 | 5.10 |  | 4.85 |  |  |  |  |  | 
C(=N\Nc1nc(-c2ccccn2)nc2ccccc12)/c1ccccc1 [compound 26666061] | 5.05 | Inactive |  |  | 5.00 | 4.65 |  |  | solubility problems |  |  |  |  | 
O=c1nc(N/N=C/c2ccccn2)cn[nH]1 [compound 24822918] | 5.00 | Inconclusive | 97.61 | ~5.15 | 4.80 | 5.15 |  |  |  |  |  |  |  | 
COc1cccc(/C=N/NC(=O)CNC(=O)CCc2ccccc2)c1O [compound 26660959] | 5.40 | Inconclusive | 88.08 | 5.07 | 4.90 | 5.15 |  | 4.40 |  |  |  |  |  | 
CCOc1c(Cl)cc(CNc2ccc(N3CCCC3)cc2)cc1OC [compound 24795526] | 5.05 | Inactive | ~ 11904 |  | 4.70 | 5.40 |  |  |  | Poor quality curve |  |  |  | 
Oc1ccc(NCc2ccccc2OCc2ccccc2F)cc1 [compound 17385881] | 5.30 | Poor quality curve | 3.087 |  | 5.05 | 5.05 |  | 4.85 |  |  |  |  |  | 
CCOc1cc(CNc2ccc(N3CCCCC3)cc2)cc(Br)c1OCC(=O)NC(C)(C)C [compound 22412645] | 5.50 | Inactive | ~ 104.5 |  | 5.50 | 4.40 |  |  |  |  | Inconclusive |  |  | 
C[C@@](Cc1ccc(O)c(O)c1)(NN)C(=O)O [compound 11113507] | 5.45 | Inactive | 95.69 | 5.25 | 4.85 | 5.45 |  |  |  |  |  |  |  | 
O=c1c2ccccc2sn1-c1nccs1 [compound 24830882] | 5.10 | Inactive | 82.19 | 4.99 | 5.40 | 5.10 |  |  |  |  |  |  |  | 
c1cnc2c(c1)ccc1cccnc12 [compound 11533040] | 6.60 | Inactive | 93.01 | ~4.58 | 5.40 | 5.00 |  |  |  |  |  |  |  | 
COC(=O)CNC(=O)C(=O)OC [DMOG, dimethyloxalylglycine] |  |  |  |  |  |  |  |  |  |  |  | approximately 20% |  | 
CN1CCN(Cc2cc(COCc3ccccc3)c3cccnc3c2O)CC1 [compound 4248346] | 5.05 | Inactive | 96.1 | 4.76 | 5.05 | 5.15 |  |  |  |  |  |  |  | 
NC(Cc1cc(O)c(O)cc1O)C(=O)O (centres unmarked) [compound 50106437] | 4.90 | Inactive |  |  | 5.65 | 5.10 |  |  | solubility problems |  |  |  |  | 
O=C(O)c1ccc(O)c2ncccc12 [SID 85736331, 5-carboxy-8-hydroxyquinoline] |  |  |  |  |  |  |  |  |  |  |  |  | 3.54 | 4.69
CN(C)C1C(=O)C(C(N)=O)=C(O)[C@@]2(O)C(=O)C3=C(O)c4c(O)cccc4[C@@](C)(O)C3[C@H](O)C12 (some centres unmarked) [compound 50105558] | 5.70 | Poor quality curve | 94.16 | 4.26 | 5.05 | 4.85 |  | 5.45 |  |  |  |  |  | 
O=c1c(O)c(-c2cc(O)c(O)c(O)c2)oc2cc(O)cc(O)c12 [compound 11111488] |  | Inactive | 95.03 |  |  |  |  |  |  | Poor quality curve |  |  |  | 
CC1(C)CCC2=C(O1)c1ccccc1C(=O)C2=O [compound 50106535] | 5.45 |  | 91.75 | 4.54 |  |  |  |  |  |  |  |  |  | 
O=c1cc(-c2ccccc2)oc2cc(O)c(O)c(O)c12 [compound 11114203] | 6.05 | Inactive | 89.05 | 5.24 | 5.05 | 5.65 |  |  |  |  |  |  |  | 
Nc1ccc2nc3c(=O)n(CCc4ccccc4)c(=O)[nH]c3nc2c1 [compound 26726384] | 5.75 | Inactive | 51.81 | 3.85 | 4.85 | 5.15 |  |  |  |  | Poor quality curve |  |  | 
COc1cccc(/C=N/NC(=O)CNC(=O)COc2cccc(C)c2)c1O [compound 26660958] | 5.55 | Inactive | 89.52 | 4.99 |  | 5.35 |  |  |  | Inconclusive |  |  |  | 
COc1ccc(/C=C/C(=O)NC(=S)NNC(=O)c2cnccn2)cc1 [compound 26725781] | 5.10 | Inactive | 94.6 | 5.46 | 5.05 | 5.00 |  |  |  |  |  |  |  | 
CCCCc1ccc(C(=O)O)nc1 [compound 11111188] | 5.40 | Inactive | ~ 5848 |  | 5.80 | 5.45 |  |  |  |  |  |  |  | 
COc1ccccc1NC(=S)NNC(=O)c1nn(C)c(C)c1Br [compound 22404294] | 5.10 | Inactive |  |  | 5.60 | 5.40 |  |  |  |  |  |  |  | 
O=C(CC1Sc2ncnn2C1=O)Nc1ccc(Cl)cc1 (centres unmarked) [compound 24795544] | 5.80 |  |  |  | 5.10 | 5.70 |  | 6.60 |  |  |  |  |  | 
COc1cc(/C=N/Nc2nncn2N)ccc1OCc1c(C)no[n+]1[O-] [compound 26657989] | 6.30 | Inactive |  |  |  | 5.35 |  |  |  | Inactive |  |  |  | 

From article PMC2990756, “Quantitative High-Throughput Screening Identifies 8-Hydroxyquinolines as Cell-Active Histone Demethylase Inhibitors” (PLoS ONE, 2010)
